Results published in ChEMBL document CHEMBL1641509, “A PIM₂ analogue suppresses allergic airway disease” (Bioorg Med Chem, 2011).
Active and inactive are the calls of the source.

Experiments:
Assay type in all cases: functional, organism-based
Conditions in all cases: Lung
Mus musculus [1] = test: Antiinflammatory activity against ovalbumin-induced airway allergic C57BL/6 mouse model assessed as decrease of lymphocytes in bronchoalveolar lavage fluid at 20 ug/mL administered intranasally after 28 days ovalbumin challenge measured on day 32
Mus musculus [2] = test: Antiinflammatory activity against ovalbumin-induced airway allergic C57BL/6 mouse model assessed as decrease of macrophages in bronchoalveolar lavage fluid at 20 ug/mL administered intranasally after 28 days ovalbumin challenge measured on day 32
Mus musculus [3] = test: Antiinflammatory activity against ovalbumin-induced airway allergic C57BL/6 mouse model assessed as reduction of recruitment of eosinophils in bronchoalveolar lavage fluid at 20 ug/mL administered intranasally after 28 days ovalbumin challenge measured on day 32

Measured: Activity

CCCCCCCCCCCCCCCCCC(=O)OC[C@H](COP(=O)(O)OC(CO[C@H]1O[C@H](CO)[C@@H](O)[C@H](O)[C@@H]1O)CO[C@H]1O[C@H](CO)[C@@H](O)[C@H](O)[C@@H]1O)OC(=O)CCCCCCCCCCCCCCCCC
active: all assays above
